Measured values from BindingDB's records for doi:10.1016/j.bmc.2016.08.054 (National Institute of Public Health-National Institute of …, 2016).

Target: Aminopeptidase N (Sus scrofa) (UniProt P15145)
Assay: Inhibition of porcine kidney microsomal LAP using l-leucine-7-amido-4-methylcoumarin as substrate incubated for 60 mins measured every 3 mins by fluorescence assay

Aminopeptidase N (Sus scrofa), sequence (P15145 whole entry, looked up): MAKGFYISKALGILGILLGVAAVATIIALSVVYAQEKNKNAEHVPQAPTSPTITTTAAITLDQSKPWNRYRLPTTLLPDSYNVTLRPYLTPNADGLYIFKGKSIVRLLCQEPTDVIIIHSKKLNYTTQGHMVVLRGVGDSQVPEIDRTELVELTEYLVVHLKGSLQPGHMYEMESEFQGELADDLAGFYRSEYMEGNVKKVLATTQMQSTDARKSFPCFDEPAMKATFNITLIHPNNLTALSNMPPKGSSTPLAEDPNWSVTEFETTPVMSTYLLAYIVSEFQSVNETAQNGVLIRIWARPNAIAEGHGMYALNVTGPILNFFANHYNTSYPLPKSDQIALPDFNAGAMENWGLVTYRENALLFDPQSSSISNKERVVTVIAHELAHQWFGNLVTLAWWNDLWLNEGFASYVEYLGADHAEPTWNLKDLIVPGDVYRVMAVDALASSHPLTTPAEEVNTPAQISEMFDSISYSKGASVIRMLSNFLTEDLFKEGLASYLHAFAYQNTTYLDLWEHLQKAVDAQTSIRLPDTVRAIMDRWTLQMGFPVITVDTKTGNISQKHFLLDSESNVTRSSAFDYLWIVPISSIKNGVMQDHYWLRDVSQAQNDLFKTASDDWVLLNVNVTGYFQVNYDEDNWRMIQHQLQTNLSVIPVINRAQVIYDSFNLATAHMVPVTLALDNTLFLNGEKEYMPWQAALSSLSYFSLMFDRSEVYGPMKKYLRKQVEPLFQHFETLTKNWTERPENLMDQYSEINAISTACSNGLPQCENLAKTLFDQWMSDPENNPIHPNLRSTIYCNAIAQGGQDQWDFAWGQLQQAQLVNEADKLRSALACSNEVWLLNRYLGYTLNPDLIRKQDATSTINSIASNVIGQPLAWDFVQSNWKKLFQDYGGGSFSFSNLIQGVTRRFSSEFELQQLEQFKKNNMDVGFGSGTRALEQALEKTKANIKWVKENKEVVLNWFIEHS

IC50 [µM]	Compound
76.8	O=C(O)C1Cc2cc(O)c(Br)c(O)c2C=N1 (configuration not stated)
68.3	O=C(O)C1Cc2cc(O)c(O)c(Br)c2C=N1 (configuration not stated)
379	O=C(O)C1Cc2cc(O)cc(O)c2C=N1 (configuration not stated)
111	O=C(O)C1Cc2cc(O)c(O)cc2C=N1 (configuration not stated)
781	O=C(O)C1Cc2cc(O)c(O)c(O)c2C=N1 (configuration not stated)
69.3	O=C(O)C1Cc2cc(O)c(I)cc2C=N1 (configuration not stated)
16.5	CCOC(=O)C1(C(=O)OCC)Cc2cc(OCc3ccccc3)cc(OCc3ccccc3)c2C=N1
1050	COc1cc2c(cc1OC)CCC(C(=O)OCc1ccccc1)(C(=O)OCc1ccccc1)N=C2
63.6	O=C(O)C1Cc2cc(O)c(O)c(I)c2C=N1 (configuration not stated)
409	O=C(O)C1Cc2c(O)c(O)cc(Br)c2C=N1 (configuration not stated)
163	O=C(O)C1CCc2cc(O)c(O)cc2C=N1 (configuration not stated)

Target: Aminopeptidase N (Sus scrofa) (UniProt P15145)
Assay: Inhibition of porcine kidney microsomal LAP using l-leucine-7-amido-4-methylcoumarin as substrate incubated for 10 hrs measured every 6 mins by fluorescence assay

IC50 [µM]	Compound
33.6	CCOC(=O)C1(C(=O)OCC)Cc2cc(OCc3ccccc3)cc(OCc3ccccc3)c2C=N1
